Laboratory results as given in patent US20130183249A1, “Stimulus Sensitive Magnetic Nanocomposite Using Pyrene Polymer, and Contrast Medium Composition Containing the Nanocomposite” (INDUSTRY ACADEMIC COOPERATION FOUNDATION YOUNSEI UNIVERSITY, priority 2010, published 2013).

System: NIH3T6.7 and MDA-MB-231 cells
Test: Cell targeting ability and drug release by fluorescence microscopy
Settings: 0.05 mM based on doxorubicin, 30 minutes incubation
Protocol: For each of 12 wells, a cover glass was put on a bottom, 3×10^5 of each of NIH3T6.7 and MDA-MB-231 cells were dispensed on the glass per well to incubate for 12 hours, and washed with PBS three times. After the washing with PBS, 0.05 mM of a Herceptin-binding target-specific stimuli-sensitive nanocomposite based on doxorubicin, an IgG-binding stimuli-sensitive nanocomposite as a control group, and doxorubicin were each added to the cells, and incubated for 30 minutes. After the cells were washed with PBS, a dye for a cell nucleus (Hoechst dye) was added to the cells, reacted for 10 minutes and washed with PBS three times, and then the cover glass was fixed to a slide glass to observe microscope images.

## COc1cccc2c1C(=O)c1c(O)c3c(c(O)c1C2=O)C[C@@](O)(C(=O)CO)C[C@@H]3O[C@H]1C[C@H](N)[C@H](O)[C@H](C)O1 [Doxorubicin, doxorubicin]
  doxorubicin identified in cell nucleus (microscope images): identified from a nucleus of the doxorubicin-treated cell without distinction of cells
